Values joined by “and” are separate entries in the source; they are usually repeats but may differ in a detail not shown here. Identical values can stand only once. Like-named read-outs stand apart in the source and are kept apart here.
Columns and labels:
[1] = tested on: NCI/ADR-RES cells; experiment: cell proliferation, NCI/ADR-RES cells in culture; format: cell-based, human; settings: 72 hours
[2] = tested on: NCI/ADR-RES cells; experiment: SRB cytotoxicity assay with median-effect / combination index analysis; format: cell-based, human; settings: for IC50: NCI/ADR-RES
Experimental: The multidrug resistant cell line, NCI/ADR-RES, was obtained from the DTP Human Tumor Cell Line Screen (Developmental Therapeutics Program, NCI). Both cell lines were maintained in Dulbecco's modified Eagle's medium supplemented with 10% fetal bovine serum and the antibiotics penicillin and streptomycin. […] Stocks of M4N and paclitaxel (Sigma-Aldrich, St. Louis, Mo.) were prepared in dimethyl sulfoxide (DMSO) and added to the cell culture medium so that the final concentration of DMSO was one percent. Aqueous stocks of Dox (Sigma-Aldrich) were prepared and filter sterilized before dilution into growth medium.
NCI/ADR-RES cells were seeded at a density of 2×10^4 cells per well in 24 well plates and 24 h later the growth medium was supplemented with M4N, Dox, paclitaxel or combinations of M4N with Dox or M4N with paclitaxel. MAN was used at concentrations between 1.5 and 48 μM. For the combination of MAN and Dox a constant molar ratio of 2.4:1 (M4N:Dox) was used and for M4N and paclitaxel the ratio was 20:1 (M4N:paclitaxel). Three days after drug addition cytoxicity was assessed with the SRB assay (14) with 540 and 690 nm (reference) absorbance measured with a Power Wave 200 microplate reader (Bio-Tek Instruments, Winooski, Vt.).
The combination index (CD isobologram method of Chou and Talalay (16, 17, 18, 19) which is based on the median effect principle, was used to calculate synergism or antagonism for the combined drug effects. Dose-effect curves for each drug, singly and in combination, in serially-diluted concentrations were plotted using the median-effect equation and plot (18, 20) and the CI equation and plot (19). CI values at different effect and dose levels and isobolograms were generated automatically using the computer software CompuSyn (20). With this method, additive, synergistic or antagonistic effects are indicated by CI values of 1, <1, and >1, respectively. Comparison of the ratio of doses required to reach a given effect level for each single drug and the drugs in combination was used to determine the dose-reduction index (DRI).

[3] = tested on: NCI/ADR-RES xenografts; experiment: NCI/ADR-RES xenografts in nude mice, M4N i.p. or oral; format: in vivo; settings: 21 days systemic treatment, IP injection daily or oral feeding in food balls
Experimental: MCF-7 cells (a human mammary carcinoma cell line, obtainable from the ATCC P.O. Box 1549, Manassas, Va. 20108) were seeded into 24-well plates at 1.5×10^4 cells/well in 500 μl of Dulbecco's modified Eagle's medium (DMEM) containing 10% fetal bovine serum (FBS) and the antibiotics penicillin and streptomycin. Varying concentrations of M4N were added the next day. After incubation for an additional 3 days, cell proliferation was assessed by the MTT assay. […] The mice were assigned to a treatment group that received M4N dissolved in a 6% Cremaphor EL, 6% ethanol and 88% saline, and to a control group that received the vehicle only. […] Mice received a single daily 100 μL intraperitoneal (i.p.) injection containing 2 mg of M4N for 3 weeks. The control mice received an equal volume of the vehicle. […] The results from the individual mice were combined and the average tumor volume was determined. Statistical significance of the mean differences in tumor volume was assessed by Student's t-test.

[4] = dogs and rabbits, subcutaneous, intravaginal and IV formulations; cited from earlier work
[5] = tested on: NCI/ADR-RES multidrug resistant breast cancer xenografts; experiment: combination therapy against NCI/ADR-RES xenografts in nude mice; settings: two weeks
Experimental: Nude mice bearing NCI/ADR-RES multidrug resistant breast cancer xenografts were used as a model for combination therapy to further examine synergy between M4N and paclitaxel.
T-cell deficient female nude (nu/nu) mice, 5-6 weeks of age, were purchased from Charles River Laboratories (Wilmington, Mass.) and were housed in a pathogen-free room. All experiments involving the mice were carried out in accordance with the Johns Hopkins University Animal Care and Use Committee guideline. The mice were implanted subcutaneously in both flanks with 1×10^6 NCI/ADR-RES cells suspended in Hank's balanced salt solution (HBSS). […] For intraperitoneal (i.p.) administration, M4N, maltose-M3N and paclitaxel were dissolved in a recently developed reduced cremophor solution containing 20% (v) dehydrated ethanol, 20% (v) Cremophor EL, PEG 300, <11% (v) Tween 80 (22). Daily injections of 0.05 ml were performed for each drug and drug combination.
Tumors were measured in two perpendicular dimensions once every seven days, and the tumor volumes were calculated according to the following formula: […]
where a is the width of the tumor (smaller diameter) and b is the length (larger diameter) (23). The mean tumor volume and standard error were calculated for each treatment group. Relative mean tumor volumes, (V/V0), where V is the mean tumor volume at a particular time and V0 is the mean tumor volume at day 0 (23), were determined and used to assess tumor growth inhibition (T/C value) using the following equation:
T/C(%)=Relative Mean Tumor Volume of treated/Relative Mean Volume of control×100.
The NCI standard for the minimal level for antitumor activity (T/C≦42%) was adopted (25). At the termination of the experiment the tumors were excised and fixed in formaldehyde. Tissue samples were then sent to Paragon Bioservices for histology and immunohistochemistry using antibodies against human P-glycoprotein (Pgp).
Two dosage regimens of M4N and paclitaxel, both with a constant molar ratio of 20:1 (M4N:paclitaxel), were employed as determined by in vitro testing to be synergistic as shown in Table 1. The 8 and 16 μmol m^2 doses of pactitaxel were submaximal based on values from other studies (22) and the M4N doses of 160 and 320 μmol/m^2 were arrived at by decreasing the maximum tolerated dose used in our previous study with MCF-7 breast cancer xenografts (5). An additional NDGA derivative was also tested. Maltose-M3N was developed as a water soluble alternative to M4N, however for consistency it was dissolved in the same reduced cremophor solvent system as M4N and paclitaxel for this study.

[6] = tested on: MDR1 mRNA; experiment: RT-PCR of MDR1 mRNA in NCI/ADR-RES cells; format: cell-based, human; settings: 20 μM M4N, three days
Experimental: Total RNA was isolated using the Trizol Reagent (Invitrogen, Carlsbad, Calif.). RT-PCR was carried out with the Superscript II One-Step RT-PCR system with Platinum Taq DNA Polymerase (Invitrogen) according to the manufacturer's protocol using oligonucleotide primers specific for MDR1: […]
The RT-PCR products were separated by agarose gel electrophoresis and stained with ethidium bromide. Relative band intensities were quantified by ImageJ software (NIH, Bethesda, Md.).
We next examined the effect of M4N on MDR1 gene expression to determine whether the observed synergy between M4N and Dox and paclitaxel in multidrug resistant cells is the result of reversal of the MDR phenotype. We postulated that M4N, through its ability to inhibit Sp1 binding, might down regulate MDR1 gene expression. To examine this possibility, NCI/ADR-RES cells were exposed to 0, 5, 10 and 20 μM M4N for three days, after which total RNA and protein were examined for levels of MDR1 mRNA and Pgp. […] The levels of Pgp were normalized to cyclin B1, whose expression, according to our previous results, is unaffected by M4N (4, 5).

[7] = M4N/Dox combination 2.4:1, NCI/ADR-RES
[8] = M4N/paclitaxel combination 20:1, NCI/ADR-RES
[9] = higher regimen: M4N or Mal-M3N 320, Px 16 μmoles/m^2, i.p. daily
[10] = lower regimen: M4N 160, Px 8 μmoles/m^2, i.p. daily

COc1ccc(C[C@@H](C)[C@@H](C)Cc2ccc(OC)c(OC)c2)cc1OC [M4N, tetra-o-methyl nordihydroguaiaretic acid]
M4N required to achieve a total cell arrest [1]: 40 µM
DRI value at ED75 [2, 7]: 5.94
DRI value at ED90 [2, 7]: 24.26
DRI value at ED95 [2, 7]: 63.16
DRI value at ED75 [2, 8]: 3.98
DRI value at ED90 [2, 8]: 5.76
DRI value at ED95 [2, 8]: 7.40
IC50 ([2]; three days, combinations at molar ratio 2.4:1 (M4N:Dox) or 20:1 (M4N:paclitaxel), given as M4N + second drug, read-out: Dm, median effect dose (concentration that inhibits cell growth by 50%)): 9.14 µM and 8.19 µM
IC50 ([2]; single agent, read-out: average IC50): 8.67 µM
tumor sizes of xenografts [3]: greatly reduced the tumor sizes
amount of drug in the blood [4]: barely detectable
Deaths [5, 9]: 0/7
Relative Mean Tumor Volume [5, 9]: 1.33
T/C % [5, 9]: 50.8%
Deaths [5, 10]: 0/7
Mean Body Weight Change [5, 10]: +0.2 g/mouse
Relative Mean Tumor Volume [5, 10]: 1.70
T/C % [5, 10]: 64.9%
level of MDR1 mRNA, of the untreated value, normalized to GAPDH [6]: 36.3%

— patent US20080207532A1, “Use of Nordihydroguaiaretic Acid Derivatives in the Treatment of Drug Resistant Cancer, Viral and Microbial Infection” (Johns Hopkins University, priority 2004, published 2008)
